Consider 78 compounds from the METLIN SMRT retention time set (Domingo-Almenara et al. 2019).

A short description of this data set: gradient 5% acetonitrile 3 min, to 50% in 2 min, to 85% in 15 min, held 3 min, 100 µL/min. To be noted: column: Zorbax Extend-C18 2.1 x 50 mm; eluents: water / acetonitrile, 0.1% formic acid. An outline of the steps: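 Mixtures of ~100 pure standards were chromatographed on a Zorbax Extend-C18 column (2.1 × 50 mm, 1.8 μm) at 100 μL/min using water and acetonitrile, each with 0.1% formic acid. Detection used a quadrupole time-of-flight mass spectrometer in positive and negative ionization mode, and data collection spanned 3 months. Retention time was obtained from adduct peaks picked computationally and each checked manually.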
`Cn1nc(C(=O)N2CCCC(C(=O)Nc3ccccc3)C2)c2c1CCN(C(=O)c1ccc(F)cc1)C2` (stereo not drawn) gave an RP-LC retention time of 756 s.
Regarding `COc1ccccc1CNC(=O)C1CCCN(c2ccc(=O)n(-c3cccc(Cl)c3)n2)C1` (stereo not drawn), the RP-LC retention time stood at 883 s.
Then `COCC(=O)NCC12CCC=C1N(C)C(=O)CC2` (stereo not drawn), with 618 s; and `CN(C(=O)c1ccc(-c2cccc([N+](=O)[O-])c2)o1)C1CCS(=O)(=O)C1` (stereo not drawn), with 726 s; and `CCOCCCNC(=O)COc1nc(C)nc2onc(-c3ccccc3)c12`, with 846 s.
As for `CCCN1CCCCc2cc(C(=O)NCC(F)F)sc21`, the RP-LC retention time was found to be 932 s.
In turn, `O=C(Nc1ccc(Cl)cc1)C1CC(=O)N(c2n[nH]c3cccc(F)c23)C1` (stereo not drawn) yielded an RP-LC retention time of 787 s.
`CC(C)N1C(=O)c2cccnc2Sc2cc(NC(=O)Cc3cccc(Cl)c3)ccc21` yielded an RP-LC retention time of 940 s.
The figure for `COCc1nc2cccnc2n1C1CCN(C(=O)Nc2ccc(Br)c(C)c2)CC1` is 753 s; for `O=C(CSCCc1ccccn1)Nc1c(F)c(F)c(F)c(F)c1F` it is 643 s.
For the compound `CC(=O)Nc1ccc(NC(=O)Cn2ccn3nc(-c4ccc(F)cc4)c(CO)c3c2=O)cc1`, the RP-LC retention time is 670 s.
The figure for `Cc1cccc(N2CCN(C(=O)Cc3nnc(-c4sccc4C)o3)CC2)c1` is 921 s; for `CSc1ccc(NC(=O)N2CCC(c3cc(N)on3)CC2)cc1` it is 713 s.
The figure for `COc1ccc(C(=O)N2CCCC(c3nnc(-c4ccccc4)o3)C2)cc1` (stereo not drawn) is 804 s; for `CCC(C)OC(=O)C1=C(C)NC(=O)NC1c1ccccc1F` (stereo not drawn) it is 800 s.
The figure for `Cc1ccc(-c2csc(-n3nc(C)c(CC(=O)N4CCc5ccccc5C4)c3C)n2)cc1` is 1310 s; for `O=C1NC2(CCN(C(=O)c3cccc(Cl)c3)CC2)N=C1c1ccccc1` it is 832 s.
The compound `O=C(Cc1csc(NC(=O)c2ccsc2)n1)NCc1nc2ccccc2[nH]1` registered an RP-LC retention time of 573 s.
The figure for `CCCc1noc(-c2ccnc(-n3cnc(C(=O)N4CCCC4)c3)c2)n1` is 789 s; for `Fc1cccc(Cn2cc(-c3noc(C4CCCC4)n3)nn2)c1` it is 1010 s.
The figure for `O=c1cc(-c2cc(O)c(O)c([C@@H]3O[C@H](CO)[C@@H](O)[C@H](O)[C@H]3O)c2)oc2cc(O[C@@H]3O[C@H](CO)[C@@H](O)[C@H](O)[C@H]3O)cc(O)c12` is 648 s; for `CCCN1C(=O)CCc2c(C)nc(-c3ccc(C)cc3)nc21` it is 1150 s; for `Cc1ccc(-n2ccc(=O)c(-c3nc(-c4ccccc4Cl)no3)n2)cc1` it is 958 s.
The figure for `CN(C)c1ccc(C(=O)N2CCCC2c2nc(-c3ccc(F)cc3F)no2)cc1` (stereo not drawn) is 984 s; for `Cc1ccc(-c2cc(C(=O)NCCCN3CCN(C)CC3)c(C)[nH]2)cc1C` it is 610 s.
The compound `Cc1ccnc(NC(=O)C2CC(=O)N(c3n[nH]c4cccc(F)c34)C2)c1` (stereo not drawn) came in with an RP-LC retention time of 602 s.
On to `CCN1C(=O)c2cccnc2Sc2cc(CNC(=O)Cc3cccc(F)c3)ccc21`, for which the RP-LC retention time is 761 s.
Regarding `O=C(CN1c2ccc(F)cc2-c2ccccc2S1(=O)=O)NCc1cccnc1`, the RP-LC retention time came to 646 s.
Regarding `CCN1C(=O)Cc2cc(C(=O)N3CCN(c4ccccc4F)CC3)ccc21`, the RP-LC retention time was found to be 848 s.
Then `CC(C)CN1CCN(C(=O)COc2ccc(NC(=O)C3CC3)cn2)CC1`, with 570 s; and `COc1ccccc1CC(=O)Nc1cccn2cnnc12`, with 674 s.
Then `COc1ccc(-n2ccc(=O)c(-c3nc(-c4ccc(OC(C)C)cc4)no3)n2)cc1`, with 982 s; and `O=C(Cn1ncc2c(N3CCN(c4ccccn4)CC3)ncnc21)Nc1ccc(F)cc1Cl`, with 650 s; and `O=C(NCc1ccccc1F)C1CCCN(c2nc3ccsc3c(=O)n2Cc2ccc(F)cc2)C1` (stereo not drawn), with 958 s.
`Cc1noc2nc(CCC(=O)Nc3ccc(Cl)cc3F)nc(N3CCOCC3)c12` gave an RP-LC retention time of 818 s.
The compound `CCc1ccccc1NC(=O)Cn1ncc2c(c1=O)N(CC1CC1)C(=O)CS2` gave an RP-LC retention time of 757 s.
Then `Cn1cc(-c2nc(C(=O)N3CCN(c4ccccc4Cl)CC3)cs2)c2cccnc21`, with 1070 s; and `Cc1cc(C)c(NC(=O)C23CCC(C)(C(=O)O2)C3(C)C)c([N+](=O)[O-])c1` (stereo not drawn), with 884 s.
Then `O=C(NCc1ccc(F)cc1)C1CCCN(c2nc3ccsc3c(=O)n2Cc2ccc(F)cc2)C1` (stereo not drawn), with 963 s; and `O=c1[nH]c2ccc(O)cc2o1`, with 563 s.
Regarding `Cc1ccc(Oc2nccnc2N2CCC(C(=O)NCCCN3CCOCC3)CC2)cc1`, the RP-LC retention time was determined as 648 s.
Then `CCC(C)NC(=O)Cn1nc(C)c2sc(-c3ccccc3)nc2c1=O` (stereo not drawn), with 765 s; and `CCCc1noc(-c2ccc(-n3ncc(C(=O)NCC)c3C)nc2)n1`, with 808 s; and `CCn1c(=O)n(CC)c2cc(S(=O)(=O)c3ccccc3)c(NC(=O)CC(C)C)cc21`, with 937 s.
The figure for `CC(C)CN1CCn2cc(C(=O)N3CCC(C)CC3)nc2C1` is 599 s; for `CC(C)c1cccc(NC(=O)C2CC(=O)N(c3cccc(NC(=O)C4CCC4)c3)C2)c1` (stereo not drawn) it is 957 s.
The figure for `Cc1ccc(Cl)cc1NC(=O)N1CCc2nc[nH]c2C1` is 612 s; for `Cc1cccc(NC(=O)Nc2nc(C)c(C(=O)NC3CCCC3)s2)c1` it is 812 s; for `COc1ccc(Br)cc1CNC(=O)CCC(=O)N1Cc2cccn2-c2ccccc21` it is 993 s.
For the compound `Cc1noc(C)c1CC(=O)N1CCCn2ccnc2C1C1CCCC1` (stereo not drawn), the RP-LC retention time turned out to be 595 s.
For `CCOC(=O)c1nc(NCc2ccccc2OC)c2ccccc2n1`, the RP-LC retention time stood at 774 s.
The figure for `Cc1ccc(Nc2nc(C)cc(N3CCN(S(=O)(=O)c4ccc(C(F)(F)F)cc4)CC3)n2)cc1` is 851 s.
`COc1ccc(N2CCN(C(=O)c3cn4ccccc4n3)CC2)cc1` came in with an RP-LC retention time of 603 s.
For the compound `CCS(=O)(=O)N1CC(=O)N(c2cc(C)cc(C)c2)C(C)(C(=O)NC2CCCCCC2)C1` (stereo not drawn), the RP-LC retention time worked out at 935 s.
Compound `CCCNc1cc(N2CCCC(CCC(=O)N3CCN(c4ccccc4)CC3)C2)ncn1` (stereo not drawn) had an RP-LC retention time of 719 s.
The figure for `O=c1n(Cc2nc(-c3ccc4c(c3)OCO4)no2)nc2ccc(-c3ccccc3)nn12` is 843 s; for `CC(C)NC(=O)c1ccc(OCC2CCN(C(=O)Cc3ccc(F)cc3)CC2)cc1` it is 860 s; for `Cc1ccc(CNC(=O)CN2CCc3ccccc3C2C(=O)N2CCC(C)CC2)cc1C` (stereo not drawn) it is 1030 s.
Take `Cc1nnc(-c2ccc3ccn(CC(=O)NCCCc4ccccc4)c3c2)o1`: the RP-LC retention time came out at 807 s.
`CSc1cccc(NC(=O)Cn2c(N3CCC(C)CC3)nc(C)cc2=O)c1` had an RP-LC retention time of 765 s.
For the compound `O=c1c2sccc2n(Cc2nc(-c3cccc(Br)c3)no2)c(=O)n1-c1ccccc1`, the RP-LC retention time was found to be 1050 s.
Then `Cc1ccnc(N2CCCC(C(=O)NCCN(CCc3ccccc3)Cc3ccco3)C2)n1` (stereo not drawn), with 671 s; and `COCCCNC(=O)C1CCC(=O)N(c2ccc3c(c2)OCO3)C1c1ccc(OC)cc1` (stereo not drawn), with 644 s; and `O=C(Cn1nc(Cc2cccnc2)c2ccccc2c1=O)NCCC1=CCCCC1`, with 663 s.
The figure for `COc1cccc(CCC(=O)N2C[C@@H]3C[C@H]2C[C@@H]3NC(=O)c2cccs2)c1` is 753 s; for `CCCNC(=O)c1cc(C)nc2ccc(F)cc12` it is 646 s.
Consider `Cc1cc(C)cc(C(=O)N2CCCC(C(=O)Nc3c(C)cc(C)cc3C)C2)c1` (stereo not drawn), for which the RP-LC retention time came out at 983 s.
The figure for `O=C(CCn1cnc2cc(-c3noc(-c4cncc(Br)c4)n3)ccc21)N1CCCCC1` is 782 s; for `Cc1ccc(-c2coc(-c3ccc(NC(=O)NCCc4ccccc4)cc3)n2)c(C)c1` it is 1260 s; for `O=C(CN1CCC(c2nc(-c3ccc(F)cc3)no2)CC1)N1CCN(c2ccccc2)CC1` it is 618 s.
Then `Cc1ccc(C)c(N2CCN(CC(O)c3ccc4c(c3)OCO4)CC2)c1` (stereo not drawn), with 732 s; and `CN(C)CC1CN(C(=O)c2c[nH]c3ccccc23)CC12CCOCC2` (stereo not drawn), with 725 s.
Then `COc1ccccc1Nc1c(-c2ccc(N3CCOCC3)cc2)nc2cnccn12`, with 806 s; and `Cc1ccc(Oc2nccnc2SCC(=O)Nc2ccc(C)c(C)c2)cc1`, with 1140 s.
On to `Cc1cc2c(cc1NC(=O)c1ccco1)n(C)c(=O)c(=O)n2C`, for which the RP-LC retention time worked out at 614 s.
For `CNc1nc(Nc2ccccc2Cl)nc2ccccc12`, the RP-LC retention time was 683 s.
Compound `CC(C)Cn1cc(S(=O)(=O)Nc2ccc(Cl)cc2)c2cccnc21` showed an RP-LC retention time of 988 s.
The compound `Cc1ccc(CNC(=O)c2csc(-c3cn(C)c4ncccc34)n2)cc1C` registered an RP-LC retention time of 840 s.
